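A five-concentration, 48-hour dose response in 96-well plates underlies each endpoint, interpolated linearly between surrounding concentrations. TGI denotes the concentration required for complete inhibition of growth.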
Assays:
Assay in all cases: growth of human tumour cells (NCI), 48 h
[1] = test system: PC-3 prostate
[2] = test system: OVCAR-4 ovarian
[3] = test system: CAKI-1 renal
[4] = test system: OVCAR-3 ovarian
[5] = test system: SF-268 CNS
[6] = test system: OVCAR-8 ovarian
[7] = test system: HL-60(TB) leukemia
[8] = test system: NCI-H522 lung
[9] = test system: SK-MEL-2 melanoma
[10] = test system: SW-620 colon
[11] = test system: HOP-92 NSCLC
[12] = test system: MOLT-4 leukemia
[13] = test system: U251 CNS
[14] = test system: HCC-2998 colon
[15] = test system: MDA-MB-231 breast
[16] = test system: SNB-75 CNS
[17] = test system: SR leukemia

SMILES	TGI [1] [µM]	TGI [2] [µM]	TGI [3] [µM]	TGI [4] [µM]	TGI [5] [µM]	TGI [6] [µM]	TGI [7] [µM]	TGI [8] [µM]	TGI [9] [µM]	TGI [10] [µM]	TGI [11] [µM]	TGI [12] [µM]	TGI [13] [µM]	TGI [14] [µM]	TGI [15] [µM]	TGI [16] [µM]	TGI [17] [µM]
COc1cc(N(CCC#N)CCC#N)ccc1/C(N=Nc1cccc(C)c1)=N\NC(=O)c1ccc(C)cc1	> 100	> 100	> 100	> 100	> 100	> 100	> 100	> 100	> 100	> 100	> 100	> 100	> 100	> 100	> 100		
Cc1ccccc1NC(=O)CC(=O)n1nc(-c2ccccc2)c(N=Nc2ccc([N+](=O)[O-])cc2)c1-c1ccccc1		> 100	40.4	37.3	> 100	> 100	60.5	45.5	> 100	> 100	34	64.8	34.6	51.3		> 100	> 100
O=C(CSCC(=O)N/N=C/c1ccncc1)N/N=C/c1ccncc1	> 100	> 100	> 100	> 100	> 100	> 100	> 100	> 100	> 100	> 100	> 100	> 100	> 100	> 100	> 100	> 100	
CC1CC/C(=C\c2ccc(F)cc2)C2=C1C(c1ccc(F)cc1)n1c(s/c(=C\c3ccc(Cl)cc3)c1=O)=N2 (stereo not drawn)	> 100	> 100	> 100		> 100	> 100	> 100		> 100	> 100	> 100	> 100	> 100		> 100		
Nc1ccc2c(c1)S(=O)(=O)c1cc(N)ccc1-2	> 100	> 100	> 100	> 100	> 100	> 100	> 100	> 100	> 100	> 100	> 100	> 100	> 100	> 100	> 100		
O=C(NC(Cc1ccccc1)P(=O)(O)c1ccccc1)OCc1ccccc1 (stereo not drawn)	> 100	> 100	> 100	> 100	> 100	> 100	> 100	> 100		> 100	> 100	> 100	> 100			> 100	> 100
Cc1ccc2c(c1)C/C(=C\c1ccccc1C(=O)O)C2=O	> 100	> 100	> 100	> 100	> 100	> 100	> 100	> 100	> 100	> 100	> 100	> 100	> 100	> 100		> 100	91.3

Reference: PubChem BioAssay (NCI)
